Here are results for two substances from patent publication US8038984B2, “Membrane-permeant peptide complexes for treatment of sepsis” (Washington University, priority 1998, dated 2011).

Square brackets hold non-standard residues; d marks the D form. Ends that are not written are not given here. dOrn = NCCC[C@@H](N)C(=O)O; βAla = NCCC(=O)O

For test [1], the system named is human lymphocytes. In words: Laser scanning confocal microscopy of internalization into human lymphocytes. Format: cell-based. Conditions: 1 μM. The protocol: Freshly isolated human lymphocytes were incubated with fluorescently labeled Tat-BH4 peptide to confirm intracellular localization of the functional permeant peptide. For labeling, cells were suspended for 30 minutes in modified Earl's balanced salt solution containing 1 μM of the fluorescently labeled TAT-BH4. Control cells were treated identically except no labeled TAT-BH4 was added. Following fixation for 10 minutes in 4% paraformaldehyde, cells were analyzed for peptide internalization via detection of fluorescence by confocal microscopy using an inverted Zeiss Axiovert 200 laser scanning confocal microscope couple to a Zeiss LSM 5 PASCAL fitted with a 488 nm excitation Argon laser and a 520 nm bandpass emission filter. All images were obtained using a water immersion lens (40×) and identical instrument settings.

The subject of test [2] is human lymphocytes. In words: E. coli bacterial-induced lymphocyte apoptosis, staining for active caspase 3. Type of test: cell-based. Conditions: human lymphocytes, live E. coli ~5 hours. The protocol:
(§1) Thymocytes and splenocytes were obtained from CLP and sham-treated mice ˜20 hours postoperatively. The APO-BRDU™ kit (Phoenix Flow Systems, San Diego, Calif.) was employed for flow cytometric quantitation of TUNEL. Antibodies to active caspase 3 (Cell Signaling—Catalog #9664) were used in the flow cytometry and/or TUNEL assay.
Lymphocytes were harvested from peripheral blood obtained from 6 healthy volunteers using a ficol gradient separation technique. Approximately 1×10^6 lymphocytes were plated in individual transwell containers. E. coli bacteria (strain ATCC 25922), that had been grown overnight in trypticase soy broth were added to a separate compartment of the transwell chamber separated from direct contact with the lymphocytes by a 0.02 micron filter (25 μl of bacteria at 3×10^9 CFUs added to 1 ml volume.

For test [3], the system named is sepsis-induced lymphocyte apoptosis. The experiment in a line: Cecal ligation and puncture (CLP) sepsis model, lymphocyte apoptosis by active caspase 3. Format: in vivo, C57BL6/J mice. Particulars: mice, 1 mg by mini-osmotic pump plus additional 9.5 mg dose i.p. The protocol:
C57BL6/J male mice were housed for at least one week before manipulations. Mice were anesthetized with halothane and an abdominal incision was performed. The cecum was identified, ligated, and punctured with a #30 gauge needle. The abdomen was closed in two layers and 1 cc of 0.9% saline was administered subcutaneously.
as §1
The pumps were implanted approximately 3 hours prior to CLP because it requires ˜3 hours for pumps to activate and deliver steady state levels of compound.
The pumps were not activated until approximately three hours after implantation. […] Spleens, thymi and blood were harvested and examined for apoptosis via staining for active caspase 3.

In the case of “(d) ac-C(FM)RKKRR-Orn-RRR-β-A-(I)-SNRELVVDFLSYKLSQKGYS-COOH ([dR][dK][dK][dR][dR][dOrn][dR][dR][dR][βAla]SNRELVVDFLSYKLSQKGYS-OH; not fully specified (N-terminus)) [fluorescein conjugated TAT-BH4]”, the “internalization into human lymphocytes” value in test [1] is “located intracellular”.

As to “(d)-Ac-RKKRR-Orn-RRR-β-A-(l)-SNRELVVDFLSYKLSQKGYS-COOH (Ac-[dR][dK][dK][dR][dR][dOrn][dR][dR][dR][βAla]SNRELVVDFLSYKLSQKGYS-OH; SMILES CC(=O)N[C@H](CCCNC(=N)N)C(=O)N[C@H](CCCCN)C(=O)N[C@H](CCCCN)C(=O)N[C@H](CCCNC(=N)N)C(=O)N[C@H](CCCNC(=N)N)C(=O)N[C@H](CCCN)C(=O)N[C@H](CCCNC(=N)N)C(=O)N[C@H](CCCNC(=N)N)C(=O)N[C@H](CCCNC(=N)N)C(=O)NCCC(=O)N[C@@H](CO)C(=O)N[C@@H](CC(N)=O)C(=O)N[C@@H](CCCNC(=N)N)C(=O)N[C@@H](CCC(=O)O)C(=O)N[C@@H](CC(C)C)C(=O)N[C@H](C(=O)N[C@H](C(=O)N[C@@H](CC(=O)O)C(=O)N[C@@H](Cc1ccccc1)C(=O)N[C@@H](CC(C)C)C(=O)N[C@@H](CO)C(=O)N[C@@H](Cc1ccc(O)cc1)C(=O)N[C@@H](CCCCN)C(=O)N[C@@H](CC(C)C)C(=O)N[C@@H](CO)C(=O)N[C@@H](CCC(N)=O)C(=O)N[C@@H](CCCCN)C(=O)NCC(=O)N[C@@H](Cc1ccc(O)cc1)C(=O)N[C@@H](CO)C(=O)O)C(C)C)C(C)C) [TAT-BH4]”, the bacterial-induced apoptosis entry in test [2] (500 nM) and in test [2] (1 μM) was “significant decrease” in each case. In addition, the “sepsis-induced CD3 T cell and B cell apoptosis in the spleen” value in test [3] is given as “ameliorated the increase”.
